Data reported in patent US8163771B2, “11 β-HSD1 modulators” (Exelixis, Inc., priority 2008, dated 2012).

Molecular target: T1, recombinant human 11 β-HSD1 (Homo sapiens, UniProt P28845)
T1 construct: made in house; host or cells: E. coli
Test: 11 β-HSD1 SPA Assay (Scintillation Proximity Assay)
Assay type: biochemical
Summary of the method: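 Scintillation proximity read-out of cortisol formed from 40 nM [3H]cortisone by purified recombinant human enzyme (30-100 nM, E. coli) with 1 mM NADPH, pH7.4, 2 hours at room temperature; beads with cortisol antibody and glycyrrhetinic acid stop the reaction, read next day. IC50 derived from inhibition normalised to background and maximal wells.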

T1 sequence (P28845 whole entry): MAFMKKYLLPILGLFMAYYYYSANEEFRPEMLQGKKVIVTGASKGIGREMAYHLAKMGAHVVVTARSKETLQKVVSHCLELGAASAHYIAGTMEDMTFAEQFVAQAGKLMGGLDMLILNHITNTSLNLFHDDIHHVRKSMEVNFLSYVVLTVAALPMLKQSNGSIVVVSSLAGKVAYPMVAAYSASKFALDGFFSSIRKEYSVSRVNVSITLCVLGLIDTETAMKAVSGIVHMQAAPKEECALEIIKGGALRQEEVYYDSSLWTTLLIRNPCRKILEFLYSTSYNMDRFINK

SMILES	IC50 [nM]
COc1ccc(OC(C)(C)C(=O)N[C@H]2C[C@H]3CC[C@@H](C2)N3c2ccc(S(C)(=O)=O)cc2)cc1 [Example 182, 2-methyl-2-{[4-(methyloxy)phenyl]oxy}-N-{8-[4-(methylsulfonyl)phenyl]-8-azabicyclo[3.2.1]oct-3-endo-yl}propanamide]	< 2000
CC(C)(Oc1ccc(C(F)(F)F)cc1Cl)C(=O)N[C@H]1C[C@H]2CC[C@@H](C1)N2c1ccc(C(N)=O)cn1 [Example 183, 6-{3-endo-[(2-{[2-chloro-4-(trifluoromethyl)phenyl]oxy}-2-methylpropanoyl)amino]-8-azabicyclo[3.2.1]oct-8-yl}pyridine-3-carboxamide]	< 200
CC(C)(Oc1ccc(C(F)(F)F)cc1Cl)C(=O)N[C@H]1C[C@H]2CC[C@@H](C1)N2c1ccc(C(=O)NCC(F)(F)F)cn1 [Example 184, 6-{3-endo-[(2-{[2-chloro-4-(trifluoromethyl)phenyl]oxy}-2-methylpropanoyl)amino]-8-azabicyclo[3.2.1]oct-8-yl}-N-(2,2,2-trifluoroethyl)pyridine-3-carboxamide]	< 200
CC(C)(Oc1ccc(Cl)c(C(F)(F)F)c1)C(=O)N[C@H]1C[C@H]2CC[C@@H](C1)N2c1ccc(C(N)=O)cn1 [Example 185]	< 200
CC(C)(Oc1ccc(Cl)c(C(F)(F)F)c1)C(=O)N[C@H]1C[C@H]2CC[C@@H](C1)N2c1ccc(C(=O)NCC(F)(F)F)cn1 [Example 186, 6-{3-endo-[(2-{[4-chloro-3-(trifluoromethyl)phenyl]oxy}-2-methylpropanoyl)amino]-8-azabicyclo[3.2.1]oct-8-yl}-N-(2,2,2-trifluoroethyl)pyridine-3-carboxamide]	< 200
CC(C)(Oc1ccc(F)c(C(F)(F)F)c1)C(=O)N[C@H]1C[C@H]2CC[C@@H](C1)N2c1ccc(C(N)=O)cn1 [Example 187, 6-{3-endo-[(2-{[4-fluoro-3-(trifluoromethyl)phenyl]oxy}-2-methylpropanoyl)amino]-8-azabicyclo[3.2.1]oct-8-yl}pyridine-3-carboxamide]	< 200
CC(C)(Oc1ccc(F)c(C(F)(F)F)c1)C(=O)N[C@H]1C[C@H]2CC[C@@H](C1)N2c1ccc(C(=O)NCC(F)(F)F)cn1 [Example 188, 6-{3-endo-[(2-{[4-fluoro-3-(trifluoromethyl)phenyl]oxy}-2-methylpropanoyl)amino]-8-azabicyclo[3.2.1]oct-8-yl}-N-(2,2,2-trifluoroethyl)pyridine-3-carboxamide]	< 200
CC(C)(Oc1cc(C(F)(F)F)ccc1F)C(=O)N[C@H]1C[C@H]2CC[C@@H](C1)N2c1ccc(C(N)=O)cn1 [Example 189, 6-{3-endo-[(2-{[2-fIuoro-5-(trifluoromethyl)phenyl]oxy}-2-methylpropanoyl)amino]-8-azabicyclo[3.2.1]oct-8-yl}pyridine-3-carboxamide]	< 200
CC(C)(Oc1cc(C(F)(F)F)ccc1F)C(=O)N[C@H]1C[C@H]2CC[C@@H](C1)N2c1ccc(C(=O)NCC(F)(F)F)cn1 [Example 190, 6-{3-endo-[(2-{[2-fluoro-5-(trifluoromethyl)phenyl]oxy}-2-methylpropanoyl)amino]-8-azabicyclo[3.2.1]oct-8-yl}-N-(2,2,2-trifiuoroethyl)pyridine-3-carboxamide]	< 200
CC(C)(Oc1ncc(Cl)cc1Cl)C(=O)N[C@H]1C[C@H]2CC[C@@H](C1)N2c1ccc(S(N)(=O)=O)cn1 [Example 191, N-{8-[5-(aminosulfonyl)pyridin-2-yl]-8-azabicyclo[3.2.1]oct-3-endo-yl}-2-[(3,5-dichloropyridin-2-yl)oxy]-2-methylpropanamide]	< 200
CC(C)(Oc1ccc(C(F)(F)F)cn1)C(=O)N[C@H]1C[C@H]2CC[C@@H](C1)N2c1ccc(S(N)(=O)=O)cc1 [Example 192, N-{8-[4-(aminosulfonyl)phenyl]-8-azabicyclo[3.2.1]oct-3-endo-yl}-2-methyl-2-{[5-(trifluoromethyl)pyridin-2-yl]oxy}propanamide]	< 2000
CC(C)(Oc1ncc(Cl)cc1Cl)C(=O)N[C@H]1C[C@H]2CC[C@@H](C1)N2c1ccc(S(C)(=O)=O)cn1 [Example 193, 2-[(3,5-dichloropyridin-2-yl)oxy]-2-methyl-N-{8-[5-(methylsulfonyl)pyridin-2-yl]-8-azabicyclo[3.2.1]oct-3-endo-yl}propanamide]	< 200
CC(C)(Oc1ncc(Cl)cc1F)C(=O)N[C@H]1C[C@H]2CC[C@@H](C1)N2c1ccc(S(C)(=O)=O)cn1 [Example 194, 2-[(5-chloro-3-fluoropyridin-2-yl)oxy]-2-methyl-N-{8-[5-(methylsulfonyl)pyridin-2-yl]-8-azabicyclo[3.2.1]oct-3-endo-yl}propanamide]	< 2000
CC(C)(Oc1ncc(Cl)cc1F)C(=O)N[C@H]1C[C@H]2CC[C@@H](C1)N2c1ccc(S(C)(=O)=O)cc1 [Example 195, 2-[(5-chloro-3-fluoropyridin-2-yl)oxy]-2-methyl-N-{8-[4-(methylsulfonyl)phenyl]-8-azabicyclo[3.2.1]oct-3-endo-yl}propanamide]	< 2000
CC(C)(Oc1ccc(C(F)(F)F)cn1)C(=O)N[C@H]1C[C@H]2CC[C@@H](C1)N2c1ccc(S(C)(=O)=O)cc1 [Example 196, 2-methyl-N-{8-[4-(methylsulfonyl)phenyl]-8-azabicyclo[3.2.1]oct-3-endo-yl}-2-{[5-(trifluoromethyl)pyridin-2-yl]oxy}propanamide]	< 2000
CC(C)(Oc1cc(Cl)c(Cl)cc1Cl)C(=O)N[C@H]1C[C@H]2CC[C@@H](C1)N2c1ccc(S(C)(=O)=O)cn1 [Example 197, 2-methyl-N-{8-[5-(methylsulfonyl)pyridin-2-yl]-8-azabicyclo[3.2.1]oct-3-endo-yl}-2-[(2,4,5-trichlorophenyl)oxy]propanamide]	< 200
CC(C)(Oc1cc(Cl)c(Cl)cc1Cl)C(=O)N[C@H]1C[C@H]2CC[C@@H](C1)N2c1ccc(S(N)(=O)=O)cn1 [Example 198, N-{8-[5-(aminosulfonyl)pyridin-2-yl]-8-azabicyclo[3.2.1]oct-3-endo-yl}-2-methyl-2-[(2,4,5-trichlorophenyl)oxy]propanamide]	< 200
CC(C)(Oc1cc(Cl)c(Cl)cc1Cl)C(=O)N[C@H]1C[C@H]2CC[C@@H](C1)N2c1ccc(S(C)(=O)=O)cc1 [Example 199, 2-methyl-N-{8-[4-(methylsulfonyl)phenyl]-8-azabicyclo[3.2.1]oct-3-endo-yl}-2-[(2,4,5-trichlorophenyl)oxy]propanamide]	< 200
CC(C)(Oc1ccc(F)cc1F)C(=O)N[C@H]1C[C@H]2CC[C@@H](C1)N2c1ccc(S(C)(=O)=O)cn1 [Example 200, 2-[(2,4-difluorophenyl)oxy]-2-methyl-N-{8-[5-(methylsulfonyl)pyridin-2-yl]-8-azabicyclo[3.2.1]oct-3-endo-yl}propanamide]	< 200
CC(C)(Oc1ccc(Cl)cc1)C(=O)N[C@H]1C[C@H]2CC[C@@H](C1)N2c1ccc(S(C)(=O)=O)cn1 [Example 201, 2-[(4-chlorophenyl)oxy]-2-methyl-N-{8-[5-(methylsulfonyl)pyridin-2-yl]-8-azabicyclo[3.2.1]oct-3-endo-yl}propanamide]	< 200
CC(C)(Oc1ccc(Cl)cc1)C(=O)N[C@H]1C[C@H]2CC[C@@H](C1)N2c1ccc(S(N)(=O)=O)cn1 [Example 202, N-{8-[5-(aminosulfonyl)pyridin-2-yl]-8-azabicyclo[3.2.1]oct-3-endo-yl}-2-[(4-chlorophenyl)oxy]-2-methylpropanamide]	< 200
CC(C)(Oc1ccc(Cl)cc1)C(=O)N[C@H]1C[C@H]2CC[C@@H](C1)N2c1ccc(S(C)(=O)=O)cc1 [Example 203, 2-[(4-chlorophenyl)oxy]-2-methyl-N-{8-[4-(methylsulfonyl)phenyl]-8-azabicyclo[3.2.1]oct-3-endo-yl}propanamide]	< 2000
CC(C)(Oc1ccc(Cl)c(Cl)c1)C(=O)N[C@H]1C[C@H]2CC[C@@H](C1)N2c1ccc(S(C)(=O)=O)cn1 [Example 204, 2-[(3,4-dichlorophenyl)oxy]-2-methyl-N-{8-[5-(methylsulfonyl)pyridin-2-yl]-8-azabicyclo[3.2.1]oct-3-endo-yl}propanamide]	< 200
CC(C)(Oc1ccc(Cl)c(Cl)c1)C(=O)N[C@H]1C[C@H]2CC[C@@H](C1)N2c1ccc(S(N)(=O)=O)cn1 [Example 205, N-{8-[5-(aminosulfonyl)pyridin-2-yl]-8-azabicyclo[3.2.1]oct-3-endo-yl}-2-[(3,4-dichlorophenyl)oxy]-2-methylpropanamide]	< 200
CC(C)(Oc1ccc(Cl)c(Cl)c1)C(=O)N[C@H]1C[C@H]2CC[C@@H](C1)N2c1ccc(S(C)(=O)=O)cc1 [Example 206, 2-[(3,4-dichlorophenyl)oxy]-2-methyl-N-{8-[4-(methylsulfonyl)phenyl]-8-azabicyclo[3.2.1]oct-3-endo-yl}propanamide]	< 2000
CC(C)(Oc1ccc(F)c(F)c1)C(=O)N[C@H]1C[C@H]2CC[C@@H](C1)N2c1ccc(S(C)(=O)=O)cn1 [Example 207, 2-[(3,4-difluorophenyl)oxy]-2-methyl-N-{8-[5-(methylsulfonyl)pyridin-2-yl]-8-azabicyclo[3.2.1]oct-3-endo-yl}propanamide]	< 2000
CC(C)(Oc1ccc(F)c(F)c1)C(=O)N[C@H]1C[C@H]2CC[C@@H](C1)N2c1ccc(S(N)(=O)=O)cn1 [Example 208, N-{8-[5-(aminosulfonyl)pyridin-2-yl]-8-azabicyclo[3.2.1]oct-3-endo-yl}-2-[(3,4-difluorophenyl)oxy]-2-methylpropanamide]	< 2000
CC(C)(Oc1ccc(F)c(F)c1)C(=O)N[C@H]1C[C@H]2CC[C@@H](C1)N2c1ccc(S(C)(=O)=O)cc1 [Example 209, 2-[(3,4-difluorophenyl)oxy]-2-methyl-N-{8-[4-(methylsulfonyl)phenyl]-8-azabicyclo[3.2.1]oct-3-endo-yl}propanamide]	< 2000
